{"source": "ChEMBL document CHEMBL1141649", "about": "“Inhaled adenosine A(2A) receptor agonists for the treatment of chronic obstructive pulmonary disease” (Bioorg Med Chem Lett, 2008)", "key": {"Adenosine receptor A2a": {"target": "Adenosine receptor A2a (Homo sapiens, UniProt P29274)", "sequence (P29274 whole entry)": "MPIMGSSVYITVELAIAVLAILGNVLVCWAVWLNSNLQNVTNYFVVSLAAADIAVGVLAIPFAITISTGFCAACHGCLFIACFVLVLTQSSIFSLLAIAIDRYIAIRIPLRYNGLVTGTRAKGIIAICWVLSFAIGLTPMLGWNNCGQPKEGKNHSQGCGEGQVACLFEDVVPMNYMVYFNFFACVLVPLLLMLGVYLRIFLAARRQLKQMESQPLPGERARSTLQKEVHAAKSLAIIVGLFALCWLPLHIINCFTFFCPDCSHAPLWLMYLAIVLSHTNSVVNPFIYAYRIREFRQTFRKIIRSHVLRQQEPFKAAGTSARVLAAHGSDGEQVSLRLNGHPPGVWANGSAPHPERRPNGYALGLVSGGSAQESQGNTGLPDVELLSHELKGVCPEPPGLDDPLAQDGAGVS", "assay": "Agonist activity at adenosine A2A receptor", "format": "functional"}, "[1]": {"assay": "Clearance in rat at 1 mg/kg, iv", "format": "ADME, organism-based", "design": "dose 1 mg/kg, route intravenous", "conditions": "in vivo"}, "[2]": {"assay": "Membrane permeability by PAMPA assay", "format": "ADME", "conditions": "read-out: permeability"}, "[3]": {"assay": "Cmax in intratracheally dosed rat at 1 mg/kg", "format": "ADME, organism-based", "design": "dose 1 mg/kg, route endotracheal", "conditions": "in vivo, inhaled or intranasal"}, "[4]": {"assay": "Distribution coefficient, log D at pH 7.4", "format": "physicochemical", "conditions": "octanol/water"}, "Rattus norvegicus": {"test_system": "Rattus norvegicus", "assay": "Unbound clearance in rat at 1 mg/kg, iv", "format": "ADME, organism-based", "design": "dose 1 mg/kg, route intravenous", "conditions": "in vivo"}, "[5]": {"assay": "Intrinsic clearance in human liver microsomes", "format": "ADME, Microsome"}, "Cavia porcellus [6]": {"species_on_record": "Cavia porcellus", "assay": "Inhibition of capsaicin-induced bronchoconstriction in guinea pig after 15 mins", "format": "functional, organism-based"}, "Neutrophil": {"test_system": "Neutrophil", "assay": "Inhibition of […]-induced super oxide production in human neutrophils", "format": "functional, cell-based"}, "Cavia porcellus [7]": {"species_on_record": "Cavia porcellus", "assay": "Toxicity assessed as reduction in diastolic blood pressure in guinea pig", "format": "organism-based", "design": "scale not given: the % may be the effect or the level left", "conditions": "in vivo"}}, "note": "Active and inactive are the calls of the source. The calls are words filed in the database; no cut-off is given here.", "data": [{"smiles": "COC[C@H]1O[C@@H](n2cnc3c(NCC(c4ccccc4)c4ccccc4)nc(CNC4CCCCC4)nc32)[C@H](O)[C@@H]1O", "values": [{"measurement": "IC50", "setting": "Adenosine receptor A2a", "value": 0.1, "unit": "µM"}]}, {"smiles": "CCNC(=O)[C@H]1O[C@@H](n2cnc3c(NCC(c4ccccc4)c4ccccc4)nc(C(=O)NCCN4CCCCC4)nc32)[C@H](O)[C@@H]1O", "values": [{"measurement": "IC50", "setting": "Adenosine receptor A2a", "value": 0.009, "unit": "µM"}]}, {"smiles": "O=C(NCCN1CCCCC1)c1nc(NCC(c2ccccc2)c2ccccc2)c2ncn([C@@H]3O[C@H](CO)[C@@H](O)[C@H]3O)c2n1", "values": [{"measurement": "IC50", "setting": "Adenosine receptor A2a", "value": 0.065, "unit": "µM"}, {"measurement": "clearance", "setting": "[1]", "value": 48, "unit": "mL/min/kg"}, {"measurement": "Papp", "setting": "[2]", "value": 0.2, "unit": "×10⁻⁶ cm/s"}, {"measurement": "Cmax", "setting": "[3]", "value": 20, "unit": "nM"}, {"measurement": "logD", "setting": "[4]", "value": 2.1}, {"measurement": "CL", "setting": "Rattus norvegicus", "value": 755, "unit": "mL/min/kg"}, {"measurement": "microsomal CLint", "setting": "[5]", "value": 62.6, "unit": "µL/min/mg"}]}, {"smiles": "COC[C@H]1O[C@@H](n2cnc3c(NCC(c4ccccc4)c4ccccc4)nc(CCNC4CCCCC4)nc32)[C@H](O)[C@@H]1O", "values": [{"measurement": "IC50", "setting": "Adenosine receptor A2a", "value": 0.028, "unit": "µM"}]}, {"smiles": "CCNC(=O)[C@H]1O[C@@H](n2cnc3c(NCC(c4ccccc4)c4ccccc4)nc(CNC(=O)NCCN(C(C)C)C4CCCC4)nc32)[C@H](O)[C@@H]1O", "values": [{"measurement": "IC50", "setting": "Adenosine receptor A2a", "value": 0.006, "unit": "µM"}, {"measurement": "clearance", "setting": "[1]", "value": 45, "unit": "mL/min/kg"}, {"measurement": "Papp", "setting": "[2]", "value": "< 0.7", "unit": "×10⁻⁶ cm/s"}, {"measurement": "Cmax", "setting": "[3]", "value": 1.8, "unit": "nM"}, {"measurement": "logD", "setting": "[4]", "value": 2}, {"measurement": "CL", "setting": "Rattus norvegicus", "value": 3500, "unit": "mL/min/kg"}, {"measurement": "microsomal CLint", "setting": "[5]", "value": 135, "unit": "µL/min/mg"}]}, {"smiles": "CCNC(=O)[C@H]1O[C@@H](n2cnc3c(NCC(c4ccccc4)c4ccccc4)nc(CNC(=O)NCCN(C(C)C)C(C)C)nc32)[C@H](O)[C@@H]1O", "values": [{"measurement": "IC50", "setting": "Adenosine receptor A2a", "value": 0.011, "unit": "µM"}]}, {"smiles": "CCNC(=O)[C@H]1O[C@@H](n2cnc3c(N)nc(NCCc4ccc(CCC(=O)O)cc4)nc32)[C@H](O)[C@@H]1O", "note": "[CGS-21680]", "values": [{"measurement": "Activity", "setting": "Cavia porcellus [6]", "value": "Active"}, {"measurement": "clearance", "setting": "[1]", "value": 14, "unit": "mL/min/kg"}, {"measurement": "IC50", "setting": "Neutrophil", "value": 0.047, "unit": "µM"}, {"measurement": "Activity", "setting": "Cavia porcellus [7]", "value": 30, "unit": "%"}, {"measurement": "Papp", "setting": "[2]", "value": "< 0.2", "unit": "×10⁻⁶ cm/s"}, {"measurement": "Cmax", "setting": "[3]", "value": 271, "unit": "nM"}, {"measurement": "logD", "setting": "[4]", "value": -0.15}, {"measurement": "CL", "setting": "Rattus norvegicus", "value": 82, "unit": "mL/min/kg"}, {"measurement": "microsomal CLint", "setting": "[5]", "value": "< 8", "unit": "µL/min/mg"}]}, {"smiles": "CCNC(=O)[C@H]1O[C@@H](n2cnc3c(NCC(c4ccccc4)c4ccccc4)nc(CNC(=O)NCCN4CCCCC4)nc32)[C@H](O)[C@@H]1O", "values": [{"measurement": "IC50", "setting": "Adenosine receptor A2a", "value": 0.017, "unit": "µM"}]}, {"smiles": "CCNC(=O)[C@H]1O[C@@H](n2cnc3c(NCC(c4ccccc4)c4ccccc4)nc(NCCC4CCCCC4)nc32)[C@H](O)[C@@H]1O", "values": [{"measurement": "IC50", "setting": "Adenosine receptor A2a", "value": 1, "unit": "µM"}]}, {"smiles": "COC[C@H]1O[C@@H](n2cnc3c(NCC(c4ccccc4)c4ccccc4)nc(NCCN4CCCCC4)nc32)[C@H](O)[C@@H]1O", "values": [{"measurement": "IC50", "setting": "Adenosine receptor A2a", "value": 0.06, "unit": "µM"}]}, {"smiles": "CCNC(=O)[C@H]1O[C@@H](n2cnc3c(NCC(c4ccccc4)c4ccccc4)nc(CNC(=O)NCCN(C4CCCCC4)C(C)(C)C)nc32)[C@H](O)[C@@H]1O", "values": [{"measurement": "IC50", "setting": "Adenosine receptor A2a", "value": 0.033, "unit": "µM"}]}, {"smiles": "COC[C@H]1O[C@@H](n2cnc3c(NCC(c4ccccc4)c4ccccc4)nc(NCCC4CCCCC4)nc32)[C@H](O)[C@@H]1O", "values": [{"measurement": "IC50", "setting": "Adenosine receptor A2a", "value": 1.01, "unit": "µM"}]}]}
